Laboratory results: patent publication US5409941A, “5-heteroyl indole derivatives” (Pfizer Inc., priority 1993, dated 1995)

The compounds below were run against T1, 5-HT1D (Bos taurus, UniProt F1MGM3) (assay: 5-HT1D activity, method of R. E. Heuring and S. J. Peroutka). Settings: not given.
T1 construct: from tissue
T1 sequence (F1MGM3 1-403): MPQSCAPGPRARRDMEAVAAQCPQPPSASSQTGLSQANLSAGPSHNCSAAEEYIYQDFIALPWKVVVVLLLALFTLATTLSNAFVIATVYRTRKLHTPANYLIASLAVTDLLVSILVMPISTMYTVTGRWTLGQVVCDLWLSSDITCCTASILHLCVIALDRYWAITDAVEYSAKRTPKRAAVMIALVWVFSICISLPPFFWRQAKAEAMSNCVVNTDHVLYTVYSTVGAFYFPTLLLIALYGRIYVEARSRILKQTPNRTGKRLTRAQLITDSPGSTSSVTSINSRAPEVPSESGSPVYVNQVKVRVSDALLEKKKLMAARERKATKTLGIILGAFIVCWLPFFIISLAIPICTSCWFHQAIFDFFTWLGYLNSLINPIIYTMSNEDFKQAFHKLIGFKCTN
Assay type: binding
Description: The active compounds of the invention are evaluated as anti-migraine agents by testing the extent to which they mimic sumatriptan in contracting the dog isolated saphenous vein strip (P. P. A. Humphrey et al., Br. J. Pharmacol., 94, 1128 (1988)). This effect can be blocked by methiothepin, a known serotonin antagonist. Sumatriptan is known to be useful in the treatment of migraine and produces a selective increase in carotid vascular resistance in the anaesthetized dog. […] The active compounds are also evaluated using the method of R. E. Heuring and S. J. Peroutka (J. Neuroscience, 7, 894 (1987)).
For `Cc1nc(-c2ccc3[nH]cc(C4=CCNCC4)c3c2)cs1` [Example 20, 4-[3-(1,2,5,6-Tetrahydropyrid-4-yl)indol-5-yl]-2-methylthiazole], the IC50 was at least 1000 nM.
`Cc1csc(Cc2ccc3[nH]cc(C4=CCNCC4)c3c2)n1` [Example 26, 2-[3-(1,2,5,6-Tetrahydropyrid-4-yl)indol-5-ylmethyl]-4-methylthiazole] was tested, and the IC50 was at least 1000 nM.

Same assay, conditions: method of Heuring and Peroutka, J. Neuroscience, 7, 894 (1987); read-out: IC50 (5-HT1D activity)
`CN(C)CCc1c[nH]c2ccc(-c3nccs3)cc12` [Example 7, 2-[3-(N,N-Dimethylaminoethyl)indol-5-yl]thiazole] showed an IC50 of at least 1000 nM.
In the case of `CN(C)CCc1c[nH]c2ccc(-c3nc(CNc4ccccc4)cs3)cc12` [Example 13, 2-[3-(N,N-Dimethylaminoethyl)-indol-5-yl]-4-(phenylaminomethyl)thiazole], the IC50 is reported as at least 1000 nM.
In the case of `CN(C)CCc1c[nH]c2ccc(-c3nc(COc4ccccc4)cs3)cc12` [Example 15A, 2-[3-(N,N-Dimethylaminoethyl)indol-5-yl]-4-(phenoxymethyl)thiazole], the IC50 is reported as at least 1000 nM.
In the case of `CN(C)CCc1c[nH]c2ccc(-c3nc(CSc4ccccc4)cs3)cc12` [Example 15B, 2-[3-(N,N-Dimethylaminoethyl)indol-5-yl)-4-(thiophenoxymethyl)thiazole], the IC50 is reported as at least 1000 nM.
In the case of `CN1CCC(c2c[nH]c3ccc(-c4nc(CNc5ccccc5)cs4)cc23)CC1` [Example 28, 2-[3-(1-Methylpiperidin-4-yl)indol-5-yl]-4-(phenylaminomethyl)thiazole], the IC50 is reported as at least 1000 nM.
